According to US9109041B2, “Analog compounds of analgesic peptides derived from the venom of crotalus durissus terrificus snakes, their uses, compositions, methods of preparation and purification” (priority 2004, dated 2015):

Tests used:
[1] = system: hyperalgesia induced by the Walker 256 tumor; assay: hyperalgesia induced by the Walker 256 tumor (cancer pain); assay type: in vivo, rat
From the text: The Walker 256 tumor cells were kindly provided by Prof. Dr. Rui Curi, of the Physiology and Biophysics Department of the Biomedical Science Institute of the University of São Paulo. The tumor-bearing animal was sacrificed and the tumoral tissue was removed, placed on a Petri dish containing 0.9% saline. Then, the tumor was cut in smaller parts, and transferred into a beaker containing saline. The material was triturated with a fine-cut, until the tumor is totally fragmented. Then, this material was filtered in gauze and the liquid collected in a beaker. All procedures were performed on ice. The material of the beaker was transferred to 50 ml plastic tubes and centrifuged at 4° C., for 10 minutes, at 1200 rpm. After centrifugation, the supernatant was rejected and the precipitate resuspended in saline 0.9%. For cell counts, the suspension of cells was diluted (1:100) in saline. An aliquot (200 μl) was removed and placed in a test tube containing 200 μl of 1% Trypan blue. The cell number was determined in optical microscope using Neubauer's chamber. The cellular viability was determined considering viable the light-refracting cells.
After determining the number of cells, 1 ml of the suspension, containing 1×10^7 cells, was injected by intraperitoneal route, on the right side of the rats to obtain liquid tumor (ascites).
Five days after injection, the rats with ascites were sacrificed and the ascetic fluid collected from the peritoneal cavity and placed in a test tube containing EDTA. The liquid was diluted 100 times with phosphate-buffered saline (PBS), pH 7.4. The cell count was done after dilution with Trypan blue, as described above. Tumor cell count was ascertained to 1×10^6 cells in 100 μl, by dilution with PBS. This number of cells was determined in preliminary tests for induction of cancer pain in rats. In this final cell number adjustment, the volume of antibiotic (Benzetacil®) added to the suspension (150,000 units of antibiotic/10 ml of suspension), was taken into consideration. The antibiotic was used in order to avoid microbial contamination. The cells were injected by intraplantar route into one of the rat hind paws. Control animals were injected with PBS into the contralateral paw, in the same experimental conditions.
Hyperalgesia, allodynia and spontaneous pain were determined before (BM-basal measurement) and 5 days after tumor cell injection, before (IM-initial measurement) and 2 hours after (FM-Final measurement) peptide administration.
The results were analyzed comparing the mean values of the basal and initial measurements, or of the initial and final measurements or, when determined, by comparing the mean values obtained in the different experimental groups (Tables 17, 18, 19).
For this purpose, the animals were treated with CTOP, a specific μ receptor antagonist (20 μg/paw), nor-BNI, a specific κ receptor antagonist (50 μg/paw) or with ICI 174,864, a specific δ receptor antagonist (10 μg/paw). The antagonists were injected by intraplantar route. The peptide was administered in the dose of 6 μg/kg, orally, immediately before the injection of the opioid antagonists. The results were analyzed comparing the mean values of the basal and initial measurements, or of the initial and final measurements or, when determined, by comparing the mean values obtained in the different experimental groups ( Table 20).

[2] = system: hyperalgesia induced by chronic constriction of the sciatic nerve; assay: hyperalgesia induced by chronic constriction of the sciatic nerve (rat paw pressure test); assay type: in vivo; conditions: for pain threshold, BM: before surgery; for pain threshold, FM 1 h: day 14, 1 h after peptide; for pain threshold, FM 3 h: day 14, 3 h after peptide; for pain threshold, FM 24 h: day 14, 24 h after peptide; for pain threshold, FM 48 h: day 14, 48 h after peptide; for pain threshold, FM 72 h: day 14, 72 h after peptide; for pain threshold, FM 96 h: day 14, 96 h after peptide; for pain threshold, IM: day 14 after surgery, before peptide
Procedure: For the induction of neuropathic pain, surgery was performed in the sciatic nerve, in accordance with the method described by Bennett, G. J and Xie, Y. K. (Pain, 33:87-107, 1988). The animals were anesthetized with halothane. The sciatic nerve was exposed in the middle region of the thigh, moving away the femoral biceps muscle. Close to the trifurcation of the sciatic nerve, 7 mm of distance from the trifurcation, 4 loose ligations were performed (chromed catgut 4-0) around it, distant from each other in approximately 1 mm. The bindings were performed along the nerve, up to 4-5 mm from the initial point. The incision was sutured in layers, using silk suture thread number 4-0.
The test was applied before (BM-basal measurement) and on the 14th day after the surgery, to characterize the development of neuropathic pain.
The results were analyzed by comparing the means of the basal and initial measurements or by comparing the means of the initial and final measurements or, when determined, through the comparison of the means obtained in the different experimental groups.
For this purpose, the animals were treated with CTOP, a specific μ receptor antagonist (20 μg/paw), nor-BNI, a specific κ receptor antagonist (50 μg/paw) or with ICI 174,864, a specific δ receptor antagonist (10 μg/paw). The antagonists were injected, by intraplantar route. The peptide was administered in the dose of 5 μg/kg, orally, immediately before the injection of the opioid antagonists.
The results were analyzed comparing the mean values of the basal and initial measurements, or of the initial and final measurements or, when determined, by comparing the mean values obtained in the different experimental groups (Tables 15 and 16).

Xaa-Phe-Ser-Pro-Glu-Asn-Cys-Gln-Gly-Glu-Ser-Gln-Pro-Cys [SEQ ID NO: 2]
pain threshold, FM ([1]; 6 μg/kg p.o. + CTOP 20 μg/paw i.pl., 5th day, 2 hours after peptide): 72 ± 2.81 g
pain threshold, IM ([1]; 6 μg/kg p.o. + CTOP 20 μg/paw i.pl., 5th day, before peptide): 37 ± 2.81 g
pain threshold, BM ([1]; 6 μg/kg p.o. + CTOP 20 μg/paw i.pl., before injection of the tumor): 70 ± 1.29 g
pain threshold, FM ([1]; 6 μg/kg p.o. + ICI 174,864 10 μg/paw i.pl., 5th day, 2 hours after peptide): 52 ± 1.22 g
pain threshold, IM ([1]; 6 μg/kg p.o. + ICI 174,864 10 μg/paw i.pl., 5th day, before peptide): 33 ± 3.39 g
pain threshold, BM ([1]; 6 μg/kg p.o. + ICI 174,864 10 μg/paw i.pl., before injection of the tumor): 67 ± 1.22 g
pain threshold, FM ([1]; 6 μg/kg p.o. + nor-BNI 50 μg/paw i.pl., 5th day, 2 hours after peptide): 32 ± 1.05 g
pain threshold, IM ([1]; 6 μg/kg p.o. + nor-BNI 50 μg/paw i.pl., 5th day, before peptide): 32 ± 2.14 g
pain threshold, BM ([1]; 6 μg/kg p.o. + nor-BNI 50 μg/paw i.pl., before injection of the tumor): 69 ± 1.53 g
pain threshold, FM ([1]; 6 μg/kg p.o., 5th day after tumor implantation, 2 hours after peptide (Table 17)): 76 ± 2.29 g
pain threshold, IM ([1]; 6 μg/kg p.o., 5th day after tumor implantation, before peptide (Table 17)): 27 ± 1.01 g
pain threshold, FM ([1]; 6 μg/kg p.o., 5th day, 2 hours after peptide (Table 20)): 75 ± 2.88 g
pain threshold, IM ([1]; 6 μg/kg p.o., 5th day, before peptide (Table 20)): 36 ± 2.39 g
pain threshold, BM ([1]; 6 μg/kg p.o., before injection of the tumor (Table 17)): 69 ± 1.30 g
pain threshold, BM ([1]; 6 μg/kg p.o., before injection of the tumor (Table 20)): 71 ± 1.25 g
effect of the mu opioid receptor antagonist on the anti-hyperalgesic effect of the peptide ([1]; peptide 6 μg/kg p.o., CTOP 20 μg/paw i.pl.): did not alter
effect of the delta opioid receptor antagonist on the anti-hyperalgesic effect of the peptide ([1]; peptide 6 μg/kg p.o., ICI 174,864 10 μg/paw i.pl.): partially inhibited
effect of the kappa opioid receptor antagonist on the anti-hyperalgesic effect of the peptide ([1]; peptide 6 μg/kg p.o., nor-BNI 50 μg/paw i.pl.): blocked
pain threshold, BM ([2]; 0.0016 μg/kg p.o.): 72 ± 1.22 g
pain threshold, FM 1 h ([2]; 0.0016 μg/kg p.o.): 32 ± 1.22 g
pain threshold, FM 3 h ([2]; 0.0016 μg/kg p.o.): 32 ± 1.22 g
pain threshold, FM 24 h ([2]; 0.0016 μg/kg p.o.): 33 ± 1.22 g
pain threshold, FM 48 h ([2]; 0.0016 μg/kg p.o.): 30 ± 0.00 g
pain threshold, FM 72 h ([2]; 0.0016 μg/kg p.o.): 32 ± 1.22 g
pain threshold, FM 96 h ([2]; 0.0016 μg/kg p.o.): 32 ± 1.22 g
pain threshold, IM ([2]; 0.0016 μg/kg p.o.): 33 ± 1.22 g
pain threshold, BM ([2]; 0.008 μg/kg p.o.): 74 ± 1.87 g
pain threshold, FM 1 h ([2]; 0.008 μg/kg p.o.): 34 ± 1.00 g
pain threshold, FM 3 h ([2]; 0.008 μg/kg p.o.): 30 ± 1.58 g
pain threshold, FM 24 h ([2]; 0.008 μg/kg p.o.): 30 ± 0.00 g
pain threshold, FM 48 h ([2]; 0.008 μg/kg p.o.): 33 ± 1.22 g
pain threshold, FM 72 h ([2]; 0.008 μg/kg p.o.): 31 ± 1.00 g
pain threshold, FM 96 h ([2]; 0.008 μg/kg p.o.): 32 ± 1.22 g
pain threshold, IM ([2]; 0.008 μg/kg p.o.): 33 ± 1.22 g
pain threshold, BM ([2]; 0.04 μg/kg p.o.): 71 ± 1.00 g
pain threshold, FM 1 h ([2]; 0.04 μg/kg p.o.): 29 ± 1.00 g
pain threshold, FM 3 h ([2]; 0.04 μg/kg p.o.): 30 ± 0.00 g
pain threshold, FM 24 h ([2]; 0.04 μg/kg p.o.): 31 ± 1.00 g
pain threshold, FM 48 h ([2]; 0.04 μg/kg p.o.): 33 ± 1.22 g
pain threshold, FM 72 h ([2]; 0.04 μg/kg p.o.): 33 ± 0.00 g
pain threshold, FM 96 h ([2]; 0.04 μg/kg p.o.): 33 ± 1.22 g
pain threshold, IM ([2]; 0.04 μg/kg p.o.): 33 ± 1.22 g
pain threshold, BM ([2]; 0.2 μg/kg p.o.): 73 ± 1.22 g
pain threshold, FM 1 h ([2]; 0.2 μg/kg p.o.): 51 ± 1.87 g
pain threshold, FM 3 h ([2]; 0.2 μg/kg p.o.): 56 ± 1.87 g
pain threshold, FM 24 h ([2]; 0.2 μg/kg p.o.): 52 ± 1.22 g
pain threshold, FM 48 h ([2]; 0.2 μg/kg p.o.): 54 ± 1.00 g
pain threshold, FM 72 h ([2]; 0.2 μg/kg p.o.): 53 ± 1.22 g
pain threshold, FM 96 h ([2]; 0.2 μg/kg p.o.): 33 ± 1.22 g
pain threshold, IM ([2]; 0.2 μg/kg p.o.): 31 ± 1.00 g
pain threshold, BM ([2]; 1 μg/kg p.o.): 72 ± 1.22 g
pain threshold, FM 1 h ([2]; 1 μg/kg p.o.): 73 ± 1.22 g
pain threshold, FM 3 h ([2]; 1 μg/kg p.o.): 73 ± 1.22 g
